Data as given in patent US20010039258A1, “Active agent transport systems” (Emisphere Technologies, Inc., priority 1990, published 2001).
Like-named read-outs stand apart in the source and are kept apart here. Each block holds one compound with its values, some of them ahead of it.

How the values were obtained:
[1] = molecular target: rhGH (Homo sapiens, UniProt P01241); test: Isothermal titration calorimetry of rhGH with perturbants; format: binding; conditions: 30° C.
Experimental: The ability of rhGh to complex with various perturbants was assessed by ITC using a Microcal Omega titrator, usually equilibrated at 30° C. The sample cell of the calorimeter was filled with degassed rhGH (usually at 0.25 mM) prepared in 50 mM phosphate buffer, pH 7.5 or 4.0. The perturbant (cyclohexanoyl chloride modified L-tyrosin (a), salicyloyl modified L-phenylalanine (b), or phenylsulfonyl-para-amino benzoic acid (c)) was then placed in the dropping syringe at 1 mM (for pH 7.5) and 2.5 mM, (for pH 4.0). Twenty to twenty-five 10 μl injections were made into rapidly mixing (400 rpm) solution with 2 minute intervals between injections.
Initial concentration of perturbant placed in the calorimeter sample cell assumed a formula weight of 200 for each perturbant. The pH of each solution was checked after dissolution, but no adjustments of the pH were required. All experiments were performed at 30° C. Initial concentration of rhGh placed in the dropping syringe assumed a molecular weight of 20,000 for rhGh. The pH of each solution was checked after dissolution, but no adjustment of the pH was required.
The heats of reaction were determined by integration of the observed peaks. To correct for heat of mixing and dilution, a control experiment was also performed under identical conditions where aliquots of the test perturbant or rhGh were added to buffer solution only.

[2] = molecular target: T1, α-interferon (Homo sapiens, UniProt P01563); test: Perturbant binding DSC with α-interferon; conditions: α-interferon 0.64 mg/ml, pH 7.2
T1 construct: purchased Schering Plough Corp
Experimental: Perturbant binding DSC was conducted using 20 mM NaPhosphate buffer at pH 7.2. Dry perturbant was weighed out to make perturbant stock solutions. α-interferon stock was diluted in the buffer. α-interferon solution was not dialyzed prior to experiments for the purpose of having the same active concentration for the whole set.
DSC thermograms were generated with α-interferon at a concentration of 0.64 mg/ml and a perturbant (phenylsulfonyl-para-aminobenzoic acid purified to >98% (as determined by reverse phase chromatography prior to generation of the spectra)) at perturbant concentrations of 5, 10, 25 and 100 mg/ml. DSC was conducted on a DASM-4 differential scanning calorimeter interfaced to an IBM PC for automatic collection of the data. The scanning rate was 60° C./h.
The method of Example 19 was followed substituting α-interferon without perturbant. Results are illustrated in Table 9 below and FIG. 10. […]

[3] = molecular target: T1, α-interferon; test: Isothermal titration calorimetry of perturbant complexing with α-interferon; format: binding; conditions: 25° C.; for result of complexing with α-interferon at pH 3: 20 mM NaAc; for n (1), # of complexed perturbant molecules: curve fitting, multiple independent sites
Experimental: Isothermal titration calorimetry of perturbant complexing with α-interferon was performed at 25° C. at two different pH's. The buffers used were 20 mM NaPhosphate for pH 7.2 and 20 mM NaAc for pH 3.0. α-interferon solution was dialyzed before the experiment to reach the appropriate pH. Dry perturbants were weighed and diluted in dialysate.
ITC was conducted on a MicroCal OMEGA titration calorimeter (MicroCal Inc.—Northampton, Mass.). Data points were collected every 2 seconds, without subsequent filtering. α-interferon solution placed in 1.3625 mL cell was titrated using a 250 μL syringe filled with concentrated perturbant solution. A certain amount of titrant was injected every 3-5 minutes for up to 55 injections.
A reference experiment to correct for the heat of mixing of two solutions, was performed identically except that the reaction cell was filled with buffer without active agent.
Analysis of the data was performed using the software developed at the Johns Hopkins University Biocalorimetry Center.
The titration at pH 7.2 included 53 injections of 2 μL of the perturbant of Example 30 (50 mg/mL=191.6 mM (MW 261)) and α-interferon (1.3 mg/mL=0.067 mM (MW 19400)).
The titration at pH 7.2 included two runs of […] each of 5 μL of perturbant (50 mg/mL=181 mM (FW 277)) and α-interferon (2.31 mg/mL=0.119 mM, (MW 19400)).
ITC was performed according to the method of Example 24 with 40 injections of 5 μL of the perturbant benzoyl para-amino phenylbutyric acid (7.5 mg/mL=24.59 mM, (FW 305)) and α-interferon (2.5 mg/mL=0.129 mM, (MW 19400)).

[4] = DSC of heparin, effect of pH; format: physicochemical
Experimental: All thermograms were performed on a Microcal MC-2 scanning calorimeter equipped with the DA2 data acquisition system operated in the upscale mode at 1° C./min (up to 90° C.), and data points were collected at 20 second intervals. All scans were initiated at least 20 degrees below the observed transitions for the active agent. All thermograms were corrected for baseline subtraction and normalized for the concentration of macromolecule. According to the methods of the Johns Hopkins Biocalorimetry Center, See, for example, Ramsay et al. Biochemistry (1990) 29:8677-8693; Schon et al. Biochemistry (1989) 28:5019-5024 (1990) 29: 781-788. […]
(§1) Thermograms were corrected by subtraction of a heparin 0.05M NaCl-phosphate buffer blank, but an individual blank was not used for each NaCl concentration.

[5] = DSC of heparin, effect of guanidine hydrochloride; format: physicochemical
Experimental: (§2) Scanning calorimetry was performed using 5 mg 0.83 mM porcine insulin (MW 6,000) per mL in 50 mM phosphate buffer, pH 7.5. All thermograms were performed on a Microcal MC-2 scanning calorimeter equipped with the DA2 data acquisition system operated in the upscale mode at 1° C./min (up to 90° C.), and data points were collected at 20 second intervals. All scans were initiated at least 20 degrees below the observed transitions for the active agent. All thermograms were corrected for baseline subtraction and normalized for the concentration of macromolecule. According to the methods of the Johns Hopkins Biocalorimetry Center, See, for example, Ramsay et al. Biochemistry (1990) 29:8677-8693; Schon et al. Biochemistry (1989) 28:5019-5024 (1990) 29: 781-788.
DSC thermograms of heparin at pH 5.0 were conducted according to the method of Example 9 using pH, GuHCl, and ionic strength as perturbants.
as §1

[6] = DSC of heparin, effect of ionic strength; format: physicochemical; conditions: pH 7.0
Experimental: as §2, with “781-788. […]” for “781-788.”
as §1

Chain of rhGH (P01241 27-217): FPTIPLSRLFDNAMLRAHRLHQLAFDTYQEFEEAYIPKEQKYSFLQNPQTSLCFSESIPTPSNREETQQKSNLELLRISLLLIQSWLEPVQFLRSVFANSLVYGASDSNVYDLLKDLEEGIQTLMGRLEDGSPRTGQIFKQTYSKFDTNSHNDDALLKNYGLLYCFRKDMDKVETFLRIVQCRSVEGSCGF
T1 sequence (P01563 24-188): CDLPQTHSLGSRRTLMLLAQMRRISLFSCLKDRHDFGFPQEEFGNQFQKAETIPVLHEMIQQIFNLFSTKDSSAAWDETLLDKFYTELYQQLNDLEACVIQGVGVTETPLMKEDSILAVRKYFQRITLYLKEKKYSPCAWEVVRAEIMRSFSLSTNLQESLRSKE

Kd ([1]; pH 4.0): 0.00161 µM | ΔH ([1]; pH 4.0): -35.6 kcal/mol | ΔS ([1]; pH 4.0): −90.0 eu | Kd ([1]; pH 7.5): 1.11 µM | ΔH ([1]; pH 7.5): +2.1 kcal/mol | ΔS ([1]; pH 7.5): +35.0 eu
Compound: O=C(N[C@@H](Cc1ccccc1)C(=O)O)c1ccccc1O [B, salicyloyl modified L-phenylalanine]

Compound: O=C(O)c1ccc(NS(=O)(=O)c2ccccc2)cc1 [perturbant of Example 19, phenylsulfonyl-para-aminobenzoic acid]
Kd ([1]; pH 4.0): 0.0267 µM | ΔH ([1]; pH 4.0): -1.2 kcal/mol | ΔS ([1]; pH 4.0): −30.0 eu | Kd ([1]; pH 7.5): 0.00111 µM | ΔH ([1]; pH 7.5): +0.8 kcal/mol | ΔS ([1]; pH 7.5): +44.0 eu | Tm of α-interferon ([2]; perturbant 5 mg/ml): 64.37 °C | ΔH of α-interferon ([2]; perturbant 5 mg/ml): 60.151 kcal/mol | Tm of α-interferon ([2]; perturbant 10 mg/ml): 62.3 °C | ΔH of α-interferon ([2]; perturbant 10 mg/ml): 53.161 kcal/mol | Tm of α-interferon ([2]; perturbant 25 mg/ml): 58.15 °C | ΔH of α-interferon ([2]; perturbant 25 mg/ml): 35.393 kcal/mol | Tm of α-interferon ([2]; perturbant 100 mg/ml): 46.18 °C | ΔH of α-interferon ([2]; perturbant 100 mg/ml): 5.4393 kcal/mol | result of complexing with α-interferon at pH 3 [3]: precipitation of the complex out of the solution | log 10 Ka (1), Ka=association constant ([3]; pH 7.2): 2.82 | ΔH (1) ([3]; pH 7.2): −114.587 cal/Mole perturbant | n (1), # of complexed perturbant molecules ([3]; pH 7.2): 55.12

Tm of α-interferon ([2]; perturbant 5 mg/ml): 63.00 °C | ΔH of α-interferon ([2]; perturbant 5 mg/ml): 42.299 kcal/mol | Tm of α-interferon ([2]; perturbant 10 mg/ml): 59.49 °C | ΔH of α-interferon ([2]; perturbant 10 mg/ml): 43.058 kcal/mol | Tm of α-interferon ([2]; perturbant 25 mg/ml): 52.79 °C | ΔH of α-interferon ([2]; perturbant 25 mg/ml): 27.237 kcal/mol | ΔH of α-interferon ([2]; perturbant 100 mg/ml): 0 kcal/mol | result of complexing with α-interferon at pH 3 [3]: negative enthalpy | ΔH (1) ([3]; pH 7.2): 58.5932 cal/Mole perturbant | n (1), # of complexed perturbant molecules ([3]; pH 7.2): 121.0354 | Kd ([3]; pH 7.2, read-out: binding constant (Kd)): ~1000 µM | Kd ([3]; pH 7.2, read-out: log 10 Ka (1), Ka=association constant (converted)): 2990 µM
Compound: O=C(NC(C(=O)O)c1ccccc1)C1CCCCC1 (stereo not drawn) [perturbant of Example 22, cyclohexanoyl phenylglycine]

ΔH ([4]; pH 6.0): 232.1 kcal/mol | ΔHvH ([4]; pH 6.0): 13.8 kcal/mol | Tm (Cp, max) ([4]; pH 6.0, 20 μg/ml in 50 mM phosphate): 62.5 °C | Tm (Cp, max) ([4]; pH 6.5, (a) domain): 62.7 °C | ΔH ([4]; pH 6.5, (a) domain): 213.9 kcal/mol | Tm (Cp, max) ([4]; pH 6.5, (b) domain): 71.8 °C | ΔH ([4]; pH 6.5, (b) domain): 751.9 kcal/mol | ΔHvH ([4]; pH 6.5, printed in line (b)): 56.8 kcal/mol | Tm (Cp, max) ([4]; pH 7.0, (a) domain): 47.1 °C | ΔH ([4]; pH 7.0, (a) domain): 187.1 kcal/mol | Tm (Cp, max) ([4]; pH 7.0, (b) domain): 72.9 °C | ΔH ([4]; pH 7.0, (b) domain): 136.4 kcal/mol | ΔHvH ([4]; pH 7.0, printed in line (b)): 27.6 kcal/mol | Tm (Cp, max) ([4]; pH 7.5): 66.2 °C | ΔH ([4]; pH 7.5): 499.4 kcal/mol | ΔHvH ([4]; pH 7.5): 83.8 kcal/mol | Tm (Cp, max) ([5]; 0.5M GuHCl): 50.5 °C | ΔH ([5]; 0.5M GuHCl): 287.3 kcal/mol | ΔHvH ([5]; 0.5M GuHCl): 170.9 kcal/mol | Tm (Cp, max) ([5]; 1.0M GuHCl): 60.5 °C | ΔH ([5]; 1.0M GuHCl): 415.0 kcal/mol | ΔHvH ([5]; 1.0M GuHCl): 97.1 kcal/mol | ΔH ([5]; 1.5M GuHCl): 1716.5 kcal/mol | ΔHvH ([5]; 1.5M GuHCl): 24.3 kcal/mol | ΔH ([5]; 2.0M GuHCl): 2533.7 kcal/mol | ΔHvH ([5]; 2.0M GuHCl): 19.2 kcal/mol | ΔH ([5]; no GuHCl): 499.4 kcal/mol | ΔHvH ([5]; no GuHCl): 83.8 kcal/mol | Tm (Cp, max) ([5]; no GuHCl, 50 mM phosphate): 67.2 °C | ΔH ([6]; 0.0M NaCl): 72.9 kcal/mol | ΔHvH ([6]; 0.0M NaCl): 136.4 kcal/mol | Tm (Cp, max) ([6]; 0.0M NaCl, 20 μg/ml): 47.1 °C | Tm (Cp, max) ([6]; 0.25M NaCl): 46.1 °C | ΔH ([6]; 0.25M NaCl): not present | Tm (Cp, max) ([6]; 0.50M NaCl): 41.6 °C | ΔH ([6]; 0.50M NaCl): not present | Tm (Cp, max) ([6]; 0.75M NaCl): 27.5 °C | ΔH ([6]; 0.75M NaCl): not present | Tm (Cp, max) ([6]; 1.0M NaCl): no transition observed
Compound: Heparin

Compound: cyclohexanoyl chloride modified L-tyrosine
Kd ([1]; pH 4.0): 78.1 µM | ΔH ([1]; pH 4.0): -1.5 kcal/mol | ΔS ([1]; pH 4.0): −5.6 eu | Kd ([1]; pH 7.5): 98.8 µM | ΔH ([1]; pH 7.5): +1.4 kcal/mol | ΔS ([1]; pH 7.5): +23.5 eu
